Here are results for 17 compounds from patent CN109096271A, “噻吩类化合物及其作为usp7抑制剂和抗肿瘤药物的应用” (China Pharmaceutical University, priority 2018, dated 2018).

The target of assay [1] is T1, full-length USP7 enzyme [全长USP7酶] (Homo sapiens, UniProt Q93009).
T1 construct: 全长USP7蛋白,Ub-AMC底物蛋白,实验缓冲液
Description: Inhibition of full-length USP7 enzyme in vitro (Ub-AMC method). Particulars: half-maximal inhibitory concentration; full-length USP7, Ub-AMC substrate, 30 min preincubation at room temperature (25℃), 2 h reaction, pH 7.6; read-out: EC50 (the source's name). The format is biochemical.

Assay [2] deals with human colon cancer cells HCT-116 [人结肠癌细胞HCT-116]. Description: Antiproliferative activity on human colon cancer HCT-116 cells (MTT staining). It is filed as cell-based. To be noted: HCT-116 wild type, 72 h.

T1 sequence (Q93009 whole entry): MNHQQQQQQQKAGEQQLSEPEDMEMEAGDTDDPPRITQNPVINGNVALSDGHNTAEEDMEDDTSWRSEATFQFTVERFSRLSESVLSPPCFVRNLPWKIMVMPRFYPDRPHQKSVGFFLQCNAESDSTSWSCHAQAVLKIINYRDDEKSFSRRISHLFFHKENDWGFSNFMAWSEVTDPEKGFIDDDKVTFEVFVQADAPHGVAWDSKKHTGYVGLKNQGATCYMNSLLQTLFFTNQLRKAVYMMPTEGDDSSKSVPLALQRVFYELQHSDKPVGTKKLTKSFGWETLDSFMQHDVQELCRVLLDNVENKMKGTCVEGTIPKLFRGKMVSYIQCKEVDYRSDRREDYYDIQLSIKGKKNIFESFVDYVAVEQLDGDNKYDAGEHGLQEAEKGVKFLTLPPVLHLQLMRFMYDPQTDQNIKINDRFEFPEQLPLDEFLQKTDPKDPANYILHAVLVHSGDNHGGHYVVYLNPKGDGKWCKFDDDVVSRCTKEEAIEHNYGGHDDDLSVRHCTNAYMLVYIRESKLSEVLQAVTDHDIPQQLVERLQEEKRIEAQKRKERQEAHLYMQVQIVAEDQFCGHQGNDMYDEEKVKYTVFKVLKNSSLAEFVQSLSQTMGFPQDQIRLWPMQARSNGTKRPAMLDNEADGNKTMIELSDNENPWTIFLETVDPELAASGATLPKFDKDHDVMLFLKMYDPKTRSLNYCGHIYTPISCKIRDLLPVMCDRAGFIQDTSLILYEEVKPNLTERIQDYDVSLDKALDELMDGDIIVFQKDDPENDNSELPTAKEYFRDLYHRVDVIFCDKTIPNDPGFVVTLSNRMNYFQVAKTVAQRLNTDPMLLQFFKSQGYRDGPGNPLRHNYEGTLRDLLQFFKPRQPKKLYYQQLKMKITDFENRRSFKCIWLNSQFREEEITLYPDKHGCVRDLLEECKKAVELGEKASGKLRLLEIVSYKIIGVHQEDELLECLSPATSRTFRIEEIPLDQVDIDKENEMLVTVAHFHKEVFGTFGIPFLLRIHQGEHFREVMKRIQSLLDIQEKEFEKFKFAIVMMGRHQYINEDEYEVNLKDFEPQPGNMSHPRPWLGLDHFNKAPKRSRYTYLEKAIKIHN

Turning to `CN1CCC(Oc2ccc(NC(=O)c3cc([N+](=O)[O-])c(Sc4c(Cl)cncc4Cl)s3)cc2)CC1` [I-5, 5-((3,5-二氯吡啶-4-基)硫基)-N-(4-((1-甲基哌啶-4-基)氧基)苯基)-4-硝基噻吩-2-甲酰胺], the IC50 in assay [1] was 2.85 µM; in assay [2] (Homo sapiens) it was 2.39 µM.
Turning to `CN1CCC(Oc2ccc(NC(=O)c3cc([N+](=O)[O-])c(Sc4c(Cl)cncc4Cl)s3)cc2)C1` (stereo not shown) [I-4, 5-((3,5-二氯吡啶-4-基)硫基)-N-(4-((1-甲基吡咯烷-3-基)氧基)苯基) -4-硝基噻吩-2-甲酰胺], the IC50 is 4.45 µM in assay [1] and 2.65 µM in assay [2] (Homo sapiens).
The matching figures for `CS(=O)(=O)N1CCN(c2ccc(NC(=O)c3cc([N+](=O)[O-])c(Sc4c(Cl)cncc4Cl)s3)cc2)CC1` [I-9, 5-((3,5-二氯吡啶-4-基)硫基)-N-(4-(4-(甲基磺酰基)哌嗪-1-基)苯基) -4-硝基噻吩-2-甲酰胺]: 42.5 µM and 2.99 µM.
Consider `CN1CCN(C(=O)c2ccc(NC(=O)c3cc([N+](=O)[O-])c(Sc4c(Cl)cncc4Cl)s3)cc2)CC1` [I-10, 5-((3,5-二氯吡啶-4-基)硫基)-N-(4-(4-甲基哌嗪-1-羰基)苯基)-4-硝基噻吩-2-甲酰胺], for which the figures for the IC50 in assay [1] and in assay [2] (Homo sapiens) were 2.96 µM and 3.36 µM, respectively.
Consider `CN1CCN(CC(=O)Nc2ccc(NC(=O)c3cc([N+](=O)[O-])c(Sc4c(Cl)cncc4Cl)s3)cc2)CC1` [I-15, 5-((3,5-二氯吡啶-4-基)硫基)-N-(4-(2-(4-甲基哌嗪-1-基)乙酰氨基)苯 基)-4-硝基噻吩-2-甲酰胺], for which the IC50 was found to be 7.26 µM in assay [1] and 4.87 µM in assay [2] (Homo sapiens).
The matching figures for `CC1CS(=O)(=O)c2cc(NC(=O)c3cc([N+](=O)[O-])c(Sc4c(Cl)cncc4Cl)n3C)ccc21` (stereo not shown) [I-3, 5-((3,5-二氯吡啶-4-基)硫基)-1-甲基-N-(3-甲基-1,1-二氧代-2,3-二氢苯并[b] 噻吩-6-基)-4-硝基-1H-吡咯-2-甲酰胺]: more than 50 µM and more than 50 µM.
Turning to `CC1CS(=O)(=O)c2cc(NC(=O)c3cc([N+](=O)[O-])c(Sc4c(Cl)cncc4Cl)[nH]3)ccc21` (stereo not shown) [I-2, 5-((3,5-二氯吡啶-4-基)硫基)-N-(3-甲基-1,1-二氧代-2,3-二氢苯并[b]噻吩-6-基)-4-硝基-1H-吡咯-2-甲酰胺], the IC50 in assay [1] and in assay [2] (Homo sapiens) was more than 50 µM each time.
In the case of `CN(C)CCN1CCN(C(=O)c2ccc(NC(=O)c3cc([N+](=O)[O-])c(Sc4c(Cl)cncc4Cl)s3)cc2)CC1` [I-11, 5-((3,5-二氯吡啶-4-基)硫基)-N-(4-(4-(2-(二甲基氨基)乙基)哌嗪-1-羰基)苯基)-4-硝基噻吩-2-甲酰胺], the IC50 in assay [1] came to 2.5 µM; in assay [2] (Homo sapiens), 7.63 µM.
On the same counts, the results for `CN(C)CCN1CCN(C(=O)c2cc([N+](=O)[O-])c(Sc3c(Cl)cncc3Cl)s2)CC1` [I-17, (5-((3,5-二氯吡啶-4-基)硫基)-4-硝基噻吩-2-基)(4-(2-(二甲基氨基)乙 基)哌嗪-1-基)甲酮] are 6.59 µM and 8.53 µM.
`O=C(NCCN1CCOCC1)c1ccc(NC(=O)c2cc([N+](=O)[O-])c(Sc3c(Cl)cncc3Cl)s2)cc1` [I-12, ((3,5-二氯吡啶-4-基)硫基)-N-(4-((2-吗啉代乙基)氨基甲酰基)苯基)-4-硝基噻吩-2-甲酰胺]: the IC50 in assay [1] turned out to be 1.18 µM; in assay [2] (Homo sapiens), 1.82 µM.
Regarding “((3,5-二氯吡啶-4-基)硫基)-N-(4-((2-(4-甲基哌嗪-1-基)乙酰氨基)甲基) 苯基)-4-硝基噻吩-2-甲酰胺 [I-13]”, the IC50 in assay [1] worked out at 3.71 µM; in assay [2], 3.26 µM.
On to `CN1CCCN(c2ccc(NC(=O)c3cc([N+](=O)[O-])c(Sc4c(Cl)cncc4Cl)s3)cc2)CC1` [I-7, 5-((3,5-二氯吡啶-4-基)硫基)-N-(4-(4-甲基-1,4-二氮杂环庚烷-1-基)苯基)-4-硝基噻吩-2-甲酰胺], for which the IC50 in assay [1] was determined as 6.9 µM; in assay [2] (Homo sapiens), 3.48 µM.
With `CN1CCCC(Oc2ccc(NC(=O)c3cc([N+](=O)[O-])c(Sc4c(Cl)cncc4Cl)s3)cc2)CC1` (stereo not shown) [I-6, 5-((3,5-二氯吡啶-4-基)硫基)-N-(4-((1-甲基吖庚烷-4-基)氧基)苯基)-4-硝基噻吩-2-甲酰胺], the results for the IC50 in assay [1] and in assay [2] (Homo sapiens) were 4.56 µM and 1.98 µM, respectively.
On the same counts, the results for `O=C(NCCc1ccc2c(c1)OCO2)c1cc([N+](=O)[O-])c(Sc2c(Cl)cncc2Cl)s1` [I-18, N-(2-(苯并[d][1,3]二氧杂环戊烯-5-基)乙基)-5-((3,5-二氯吡啶-4-基)硫基)-4-硝基噻吩-2-甲酰胺] are more than 50 µM and more than 50 µM.
Regarding `O=C(NCCN1CCOCC1)c1cc([N+](=O)[O-])c(Sc2c(Cl)cncc2Cl)s1` [I-16, 5-((3,5-二氯吡啶-4-基)硫基)-N-(2-吗啉代乙基)-4-硝基噻吩-2-甲酰胺], the IC50 stood at 4.59 µM in assay [1] and 4.82 µM in assay [2] (Homo sapiens).
Take `CC1CS(=O)(=O)c2cc(NC(=O)c3cc([N+](=O)[O-])c(Sc4c(Cl)cncc4Cl)o3)ccc21` (stereo not shown) [I-1, 5-((3,5-二氯吡啶-4-基)硫基)-N-(3-甲基-1,1-二氧代-2,3-二氢苯并[b]噻吩-6-基)-4-硝基呋喃-2-甲酰胺]: the IC50 in assay [1] and in assay [2] (Homo sapiens) was more than 50 µM each time.
Take `CN1CCN(CC(=O)NCc2ccc(NC(=O)c3cc([N+](=O)[O-])c(Sc4c(Cl)cncc4Cl)s3)cc2)CC1` [I-14, ((3,5-二氯吡啶-4-基)硫基)-N-(4-((2-(4-甲基哌嗪-1-基)乙酰氨基)甲基) 苯基)-4-硝基噻吩-2-甲酰胺]: the IC50 in assay [1] turned out to be 3.65 µM; in assay [2] (Homo sapiens), 4.74 µM.
